Several values for one entry are separate records, joined by “and”; a condition that tells them apart may be missing. Equal values may be shown once. Marks after values point to notes of the source that are not given here. Non-standard residues stand in square brackets, D forms with d. Residues, ends and D or L forms follow the SMILES beside them. *: point of attachment. Asu = N[C@@H](CCCCCC(=O)O)C(=O)O; NHOH = ON*
Tests used:
HDAC2 [1] = molecular target: T1, HDAC2 (Homo sapiens, UniProt Q92769); test: Recombinant HDAC µSPOT microarray binding assay;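 also: Cellulose-bound peptide spots on slides incubated with six HDAC enzyme concentrations, binding intensity read, four-parameter variable-slope fit, EC50 is enzyme concentration giving half-maximal binding, in HEPES buffer pH 7.4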
T1 construct: HDAC2 (full length, C-terminal His tag, BPS Bioscience, cat. #: 50002); purchased BPS Bioscience 50002
T1 sequence (Q92769 whole entry): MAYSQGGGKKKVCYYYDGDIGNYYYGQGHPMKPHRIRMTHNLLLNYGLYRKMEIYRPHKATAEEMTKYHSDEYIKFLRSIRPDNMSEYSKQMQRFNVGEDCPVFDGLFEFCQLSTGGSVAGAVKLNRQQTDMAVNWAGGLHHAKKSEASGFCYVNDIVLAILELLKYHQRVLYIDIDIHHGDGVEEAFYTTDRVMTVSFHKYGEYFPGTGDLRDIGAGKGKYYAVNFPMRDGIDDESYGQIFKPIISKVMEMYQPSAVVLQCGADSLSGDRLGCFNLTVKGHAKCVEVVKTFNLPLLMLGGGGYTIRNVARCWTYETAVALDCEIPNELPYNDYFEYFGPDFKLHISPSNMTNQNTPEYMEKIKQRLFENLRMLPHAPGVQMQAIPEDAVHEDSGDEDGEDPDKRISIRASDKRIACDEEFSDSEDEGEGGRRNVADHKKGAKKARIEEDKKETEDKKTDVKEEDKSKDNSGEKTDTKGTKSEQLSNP
Description: Experiments were performed twice, data were obtained with Array Analyze software (Active Motif), and data analysis and representation were performed with the GraphPad Prism 7 software. Outliers were curated manually and data were fitted to nonlinear regression [log(agonist) vs. response—variable slope (four parameters)]. […] Non-sigmoidal curves were denoted as not determined (N.D.) The pEC50 values were determined as the concentration of HDAC enzyme required for half-maximal binding signal.

HDAC2 [2] = molecular target: T1, HDAC2; test: HDAC inhibition assay (fluorogenic, Ac-Leu-Gly-Lys(Ac)-AMC); assay type: biochemical; settings: for HDAC2 dose-response data (relative enzyme activity), Fig. 6 + S. Fig. 10: duplicate columns; for Ki: resynthesized peptide in solution, Cheng-Prusoff, n = 2
[3] = log[inhibitor(M)] -10,5850266520292*, whole line marked with asterisks

Row | SMILES | EC50 (HDAC2 [1]) [nM] | HDAC2 dose-response data (relative enzyme activity), Fig. 6 + S. Fig. 10 (HDAC2 [2]; log[inhibitor(M)] -5) | HDAC2 dose-response data (relative enzyme activity), Fig. 6 + S. Fig. 10 (HDAC2 [2]; log[inhibitor(M)] -5.69897) | HDAC2 dose-response data (relative enzyme activity), Fig. 6 + S. Fig. 10 (HDAC2 [2]; log[inhibitor(M)] -7.79588) | HDAC2 dose-response data (relative enzyme activity), Fig. 6 + S. Fig. 10 (HDAC2 [2]; [3]) | Ki (HDAC2 [2]) [nM]
1 | CC(=O)NCC(=O)NCC(=O)N[C@@H](CCCCCC(=O)NO)C(=O)N[C@@H](C)C(=O)N[C@@H](CCCNC(=N)N)C(=O)N[C@@H](C)C(=O)N[C@@H](CCCCN)C(=O)N[C@@H](C)C(=O)N[C@@H](CCCCN)C(=O)N[C@H](C(=O)N[C@@H](CCCNC(=N)N)C(=O)N[C@@H](CO)C(=O)N[C@@H](CO)C(=O)N[C@@H](CCCNC(=N)N)C(=O)N[C@@H](C)C(=O)NCC(=O)N[C@@H](Cc1c[nH]c2ccccc12)C(N)=O)[C@@H](C)O [9a] (Ac-GG[Asu](NHOH)ARAKAKTRSSRAGW-NH2) | 1.95 | 5.281 and 8.057 | 15.9037 and 16.112 | 105.562 and 90.7957 | 99,9428* and 99,2519* | 48 ± 0.5
2 | CC(=O)N[C@@H](C)C(=O)N1CCC[C@H]1C(=O)N[C@@H](C)C(=O)N1CCC[C@H]1C(=O)N[C@@H](CCCCN)C(=O)N[C@@H](CCCCCC(=O)NO)C(=O)NCC(=O)N[C@@H](CO)C(=O)N[C@@H](CCCCN)C(=O)N[C@@H](CCCCN)C(=O)N[C@@H](C)C(=O)N[C@H](C(=O)N[C@H](C(=O)N[C@@H](CCCCN)C(=O)N[C@@H](C)C(=O)N[C@@H](CCC(N)=O)C(=O)N[C@@H](Cc1c[nH]c2ccccc12)C(N)=O)[C@@H](C)O)C(C)C [10a] (Ac-APAPK[Asu](NHOH)GSKKAVTKAQW-NH2) | > 25.1 | 21.842 and 17.4503 | 44.183 and 59.677 | 120.227 and 109.311 | 109,81* and 112,306* | 239 ± 4
3 | CC(=O)N1CCC[C@H]1C(=O)N[C@@H](CCCNC(=N)N)C(=O)N[C@@H](CCCCN)C(=O)N[C@@H](CCC(N)=O)C(=O)N[C@@H](CC(C)C)C(=O)N[C@@H](C)C(=O)N[C@H](C(=O)N[C@@H](CCCCN)C(=O)N[C@@H](C)C(=O)N[C@@H](C)C(=O)N[C@@H](CCCNC(=N)N)C(=O)N[C@@H](CCCCCC(=O)NO)C(=O)N[C@@H](CO)C(=O)N[C@@H](C)C(=O)N1CCC[C@H]1C(=O)N[C@@H](C)C(=O)N[C@@H](Cc1c[nH]c2ccccc12)C(N)=O)[C@@H](C)O [14a] (Ac-PRKQLATKAAR[Asu](NHOH)SAPAW-NH2) | 2.82 | 11.6652 and 17.3045 | 34.222 and 35.4537 | 103.08 and 94.3091 | 107,4969* and 95,99841* | 98 ± 1
4 | CC(=O)N[C@@H](CC(C)C)C(=O)NCC(=O)N[C@@H](CCCCN)C(=O)NCC(=O)NCC(=O)N[C@@H](C)C(=O)N[C@@H](CCCCCC(=O)NO)C(=O)N[C@@H](CCCNC(=N)N)C(=O)N[C@@H](Cc1c[nH]cn1)C(=O)N[C@@H](CCCNC(=N)N)C(=O)N[C@@H](CCCCN)C(=O)N[C@H](C(=O)N[C@@H](CC(C)C)C(=O)N[C@@H](CCCNC(=N)N)C(=O)N[C@@H](CC(=O)O)C(=O)N[C@@H](CC(N)=O)C(=O)N[C@@H](Cc1c[nH]c2ccccc12)C(N)=O)C(C)C [16a] (Ac-LGKGGA[Asu](NHOH)RHRKVLRDNW-NH2) | 1.45 |  |  | 97.4067 and 92.3774 | 106,147* and 102,092* | 18.3 ± 0.3
